Patent US9745321B2, “Fused pyrimidine compound, intermediate, preparation method therefor, and composition and application thereof” (SHANGHAI YINGLI PHARMACEUTICAL CO., LTD, priority 2013, dated 2017)

Legend:
PI3Kα = PI3Kα (Homo sapiens (Human), UniProt P42336); test: PI3Kα enzyme activity inhibition IC50 evaluation assay; type: biochemical; conditions: ratio PI3Kα vs PI3Kδ
Procedure: (§1) PI3Kα, PI3Kδ, PI3Kβ and PI3Kγ Enzyme Activity Inhibition IC50 Evaluation Assay
(§2) • 1. Buffer preparation: 50 mM HEPES, pH 7.5, 3 mM MgCl2, 1 mM EGTA, 100 mM NaCl, 0.03% CHAPS. • 2. Compound was formulated in 100% DMSO in a concentration gradient, and added to a 384-well plate to a final DMSO concentration of 1%. • 3. PI3Kα, PI3Kδ, PI3Kβ and PI3Kγ enzymes were diluted to an optimum concentration with the following buffer: 50 mM HEPES, pH 7.5, 3 mM MgCl2, 1 mM EGTA, 100 mM NaCl, 0.03% CHAPS, 2 mM DTT, and transferred to a 384-well plate and incubated with the compound for a certain time. • 4. Substrate was diluted to an optimum concentration with the following buffer: 50 mM HEPES, pH 7.5, 3 mM MgCl2, 1 mM EGTA, 100 mM NaCl, 0.03% CHAPS, 2 mM DTT, 50 μM PIP2, 25 μM ATP; then added to a 384-well plate to initiate the reaction, and for PI3Kα, PI3Kβ and PI3Kγ at room temperature reacted for 1 hr, for PI3Kδ at room temperature reacted for 2 hrs. For PI3Kβ and PI3Kγ, it was still necessary to further add 10 μL ADP-Glo Detection Reagent, and then equilibrated at room temperature for 30 minutes. • 5. Read Luminescense with FlexStation, and calculate the inhibition rate as the average of two tests.

PI3Kδ = PI3Kδ (Homo sapiens (Human), UniProt O00329); test: PI3Kδ enzyme activity inhibition IC50 evaluation assay; type: biochemical; conditions: luminescence, 25 μM ATP, 50 μM PIP2, 2 hrs room temperature
Procedure: as §1
as §2, with “Substrate was diluted to an optimum concentration with the following buffer: 50 mM HEPES, pH 7.5, 3 mM MgCl2, 1 mM EGTA, 100 mM NaCl, 0.03% CHAPS, 2 mM DTT, 50 μM PIP2, 25 μM ATP; then added to a 384-well plate to initiate the reaction, and for PI3Kα, PI3Kβ and PI3Kγ at room temperature reacted for 1 hr, for PI3Kδ at room temperature reacted for 2 hrs.” left out

Chain of PI3Kδ (O00329 whole entry): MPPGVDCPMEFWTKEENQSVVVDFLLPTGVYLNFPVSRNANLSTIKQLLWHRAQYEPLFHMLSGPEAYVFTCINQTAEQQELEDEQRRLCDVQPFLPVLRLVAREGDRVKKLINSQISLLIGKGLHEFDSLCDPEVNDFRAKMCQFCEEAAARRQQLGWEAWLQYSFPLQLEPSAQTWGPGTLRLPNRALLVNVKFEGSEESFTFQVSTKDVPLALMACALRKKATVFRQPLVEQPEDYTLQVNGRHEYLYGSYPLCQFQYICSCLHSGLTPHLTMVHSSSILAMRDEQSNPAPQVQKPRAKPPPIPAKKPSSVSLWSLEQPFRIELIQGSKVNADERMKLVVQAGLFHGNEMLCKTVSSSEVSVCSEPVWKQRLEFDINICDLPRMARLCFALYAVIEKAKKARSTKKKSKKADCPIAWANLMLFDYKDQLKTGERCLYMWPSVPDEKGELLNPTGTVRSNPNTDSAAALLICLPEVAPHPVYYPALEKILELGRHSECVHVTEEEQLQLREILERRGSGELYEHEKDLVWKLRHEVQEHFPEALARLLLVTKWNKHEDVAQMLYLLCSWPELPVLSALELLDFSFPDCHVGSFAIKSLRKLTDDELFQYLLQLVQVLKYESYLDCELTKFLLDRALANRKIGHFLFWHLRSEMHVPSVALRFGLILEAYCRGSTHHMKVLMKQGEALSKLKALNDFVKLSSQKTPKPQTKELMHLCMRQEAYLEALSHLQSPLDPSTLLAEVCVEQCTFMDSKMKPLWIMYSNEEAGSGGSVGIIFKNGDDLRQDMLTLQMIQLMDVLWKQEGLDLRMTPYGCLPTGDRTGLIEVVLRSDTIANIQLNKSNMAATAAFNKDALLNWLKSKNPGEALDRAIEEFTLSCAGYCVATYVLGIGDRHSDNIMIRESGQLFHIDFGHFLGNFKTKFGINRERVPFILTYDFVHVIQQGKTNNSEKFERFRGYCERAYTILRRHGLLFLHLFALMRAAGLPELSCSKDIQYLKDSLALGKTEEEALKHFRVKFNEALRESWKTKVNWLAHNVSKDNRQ
Chain of PI3Kδ (P27986 whole entry partner): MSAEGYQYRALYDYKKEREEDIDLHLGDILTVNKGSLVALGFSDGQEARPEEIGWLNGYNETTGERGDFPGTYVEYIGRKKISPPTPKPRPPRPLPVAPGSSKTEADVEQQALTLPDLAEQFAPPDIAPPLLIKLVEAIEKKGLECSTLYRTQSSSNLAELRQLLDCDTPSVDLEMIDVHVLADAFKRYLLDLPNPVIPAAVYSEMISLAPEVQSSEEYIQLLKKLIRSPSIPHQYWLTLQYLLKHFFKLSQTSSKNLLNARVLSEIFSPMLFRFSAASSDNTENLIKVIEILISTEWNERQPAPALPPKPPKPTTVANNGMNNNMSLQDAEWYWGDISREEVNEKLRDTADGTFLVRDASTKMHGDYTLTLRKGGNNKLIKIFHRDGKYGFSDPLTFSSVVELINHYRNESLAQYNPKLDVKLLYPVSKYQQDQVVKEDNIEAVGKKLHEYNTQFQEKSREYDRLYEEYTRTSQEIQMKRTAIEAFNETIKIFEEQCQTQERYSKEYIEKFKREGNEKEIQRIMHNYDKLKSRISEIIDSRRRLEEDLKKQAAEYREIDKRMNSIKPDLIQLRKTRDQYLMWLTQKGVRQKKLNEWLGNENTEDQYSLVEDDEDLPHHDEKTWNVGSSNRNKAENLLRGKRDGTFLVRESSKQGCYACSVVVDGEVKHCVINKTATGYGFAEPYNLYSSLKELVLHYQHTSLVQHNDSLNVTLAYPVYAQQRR
Chain of PI3Kα (P42336 whole entry): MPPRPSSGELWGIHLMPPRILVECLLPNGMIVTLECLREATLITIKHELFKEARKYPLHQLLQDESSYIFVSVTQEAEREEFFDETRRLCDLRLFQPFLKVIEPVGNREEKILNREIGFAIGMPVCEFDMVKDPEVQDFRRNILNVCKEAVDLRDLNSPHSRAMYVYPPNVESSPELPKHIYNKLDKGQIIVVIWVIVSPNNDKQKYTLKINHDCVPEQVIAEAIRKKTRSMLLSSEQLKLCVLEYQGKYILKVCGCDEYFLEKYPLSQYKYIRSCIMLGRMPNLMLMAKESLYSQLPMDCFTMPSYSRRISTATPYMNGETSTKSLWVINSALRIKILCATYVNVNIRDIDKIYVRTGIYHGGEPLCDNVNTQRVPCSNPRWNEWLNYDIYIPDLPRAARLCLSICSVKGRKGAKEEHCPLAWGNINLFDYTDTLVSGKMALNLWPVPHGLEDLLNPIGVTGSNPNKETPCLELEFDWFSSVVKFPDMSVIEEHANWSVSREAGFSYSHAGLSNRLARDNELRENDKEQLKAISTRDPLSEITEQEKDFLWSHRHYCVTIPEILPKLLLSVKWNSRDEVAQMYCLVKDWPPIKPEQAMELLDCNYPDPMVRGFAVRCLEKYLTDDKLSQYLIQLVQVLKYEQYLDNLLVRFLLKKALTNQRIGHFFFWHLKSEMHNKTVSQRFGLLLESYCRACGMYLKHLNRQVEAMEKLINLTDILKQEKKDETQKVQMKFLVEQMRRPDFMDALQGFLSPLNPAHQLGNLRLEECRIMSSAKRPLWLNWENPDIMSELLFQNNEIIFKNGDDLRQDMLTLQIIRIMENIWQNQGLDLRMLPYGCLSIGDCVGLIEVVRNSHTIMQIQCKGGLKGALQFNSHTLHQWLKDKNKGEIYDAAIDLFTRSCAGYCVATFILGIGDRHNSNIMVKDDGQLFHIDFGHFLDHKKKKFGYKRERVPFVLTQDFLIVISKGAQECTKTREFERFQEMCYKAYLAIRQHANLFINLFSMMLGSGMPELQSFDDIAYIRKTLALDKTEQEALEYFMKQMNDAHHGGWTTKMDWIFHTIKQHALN
Chain of PI3Kα (P27986 whole entry partner): as the sequence (P27986 whole entry partner) above

Row | α/δ selectivity (PI3Kα) | IC50 (PI3Kδ) | SMILES
1 | 175 | 6.8 nM | COc1ncc(-c2nc(N3CCOCC3)nc3c(CN4CCC(N5CCCC5)C(F)(F)C4)c(C)sc23)cc1NS(C)(=O)=O (centres unmarked) [Compound 123]
2 | 430 | 3.1 nM | COc1ncc(-c2nc(N3CCOCC3)nc3c(CN4CCC(N5CCC[C@H]5C(F)(F)F)CC4)c(C)sc23)cc1NS(C)(=O)=O [Compound 124]
3 | 239 | 2.6 nM | COc1ncc(-c2nc(N3CCOCC3)nc3c(CN4CCC(N5CCC[C@H]5C)CC4)c(C)sc23)cc1NS(C)(=O)=O [Compound 125]
4 | 223 | 6 nM | COc1ncc(-c2nc(N3CCOCC3)nc3c(CN4CCC(N5CCC(F)CC5)CC4)c(C)sc23)cc1NS(C)(=O)=O [Compound 128]
5 | 100 | 19 nM | COc1ncc(-c2nc(N3CCOCC3)nc3c(CN4CC[C@H](N5CCCC5)C4)c(C)sc23)cc1NS(C)(=O)=O [Compound 129]
6 | 273 | 6.7 nM | COc1ncc(-c2nc(N3CCOCC3)nc3c(CN4CC[C@@H](N5CCCC5)C4)c(C)sc23)cc1NS(C)(=O)=O [Compound 130]
7 | 627 | 6.2 nM | COc1ncc(-c2nc(N3CCOCC3)nc3c(CN4CCC(C5CC5)CC4)c(C)sc23)cc1NS(C)(=O)=O [Compound 131]
8 | 35 | 10 nM | COc1ncc(-c2nc(N3CCOCC3)nc3c(CN4CCC(N5CC=CC5)CC4)c(C)sc23)cc1NS(C)(=O)=O [Compound 132]
9 | 185 | 7.7 nM | COc1ncc(-c2nc(N3CCOCC3)nc3c(CN4CC[C@@H](N5CCC[C@H]5C)C4)c(C)sc23)cc1NS(C)(=O)=O [Compound 133]
10 | 188 | 4 nM | COc1ncc(-c2nc(N3CCOCC3)nc3c(CN4CC[C@@H](N5CCC[C@@H]5C)C4)c(C)sc23)cc1NS(C)(=O)=O [Compound 134]
11 | 226 | 6.3 nM | COc1ncc(-c2nc(N3CCOCC3)nc3c(CCN4CCCCC4)c(C)sc23)cc1NS(C)(=O)=O [Compound 135]
12 | 268 | 7.8 nM | C=C1CCN(Cc2c(C)sc3c(-c4cnc(OC)c(NS(C)(=O)=O)c4)nc(N4CCOCC4)nc23)CC1 [Compound 136]
13 | 309 | 11 nM | COc1ncc(-c2nc(N3CCOCC3)nc3c(CN4CCC5(CC4)CC5)c(C)sc23)cc1NS(C)(=O)=O [Compound 137]
14 | 67 | 34 nM | COc1ncc(-c2nc(N3CCOCC3)nc3c(CN4CCc5ccccc5C4)c(C)sc23)cc1NS(C)(=O)=O [Compound 138]
15 | 69 | 3.2 nM | COc1ncc(-c2nc(N3CCOCC3)nc3c(CN4CCC(S(C)(=O)=O)CC4)c(C)sc23)cc1NS(C)(=O)=O [Compound 139]
16 | 55 | 3.2 nM | COc1ncc(-c2nc(N3CCOCC3)nc3c(CN4CCN(C)C(=O)C4)c(C)sc23)cc1NS(C)(=O)=O [Compound 140]
17 | 120 | 9 nM | COc1ncc(-c2nc(N3CCOCC3)nc3c(CN4CC5CC5C4)c(C)sc23)cc1NS(C)(=O)=O (centres unmarked) [Compound 141]
18 | 60 | 3.7 nM | COc1ncc(-c2nc(N3CCOCC3)nc3c(CN4CCN(CC(C)(C)O)CC4)c(C)sc23)cc1NS(C)(=O)=O [Compound 142]

Further lines, the compound ahead of its results:

Row | SMILES | α/δ selectivity (PI3Kα) | IC50 (PI3Kδ)
19 | COc1ncc(-c2nc(N3CCOCC3)nc3c(CN4CCN(C)CC4)csc23)cc1NS(=O)(=O)c1ccc(F)cc1F [Compound 68] | 19 | 71 nM
20 | COc1ncc(-c2nc(N3CCOCC3)nc3c(CN4CCN(C)CC4)csc23)cc1NS(=O)(=O)C1CC1 [Compound 69] | 79 | 31 nM
21 | CCS(=O)(=O)Nc1cc(-c2nc(N3CCOCC3)nc3c(CN4CCN(C)CC4)csc23)cnc1OC [Compound 70] | 87 | 23 nM
22 | COc1ncc(-c2nc(N3CCOCC3)nc3c(CN4CCN(C)CC4)csc23)cc1NS(=O)(=O)N(C)C [Compound 72] | 29 | 60 nM
23 | COc1ncc(-c2nc(N3CCOCC3)nc3c(CN4CCN(C(=O)[C@@H](C)O)CC4)c(C)sc23)cc1NS(C)(=O)=O [Compound 73] | 18 | 4.4 nM
24 | COc1ncc(-c2nc(N3CCOCC3)nc3c(CN4CCN(C(=O)[C@H](C)O)CC4)c(C)sc23)cc1NS(C)(=O)=O [Compound 74] | 13 | 4.4 nM
25 | CN1CCN(Cc2csc3c(-c4cncc(NS(C)(=O)=O)c4)nc(N4CCOCC4)nc23)CC1 [Compound 75] | 19 | 31 nM
26 | CCNC(=O)C1CCN(Cc2csc3c(-c4cnc(OC)c(NS(C)(=O)=O)c4)nc(N4CCOCC4)nc23)CC1 [Compound 76] | 60 | 7.3 nM
27 | COc1ncc(-c2nc(N3CCOCC3)nc3c(CN4CCN(C5CC(C)OC(C)C5)CC4)csc23)cc1NS(C)(=O)=O (centres unmarked) [Compound 77] | 52 | 7.1 nM
28 | COc1ncc(-c2nc(N3CCOCC3)nc3c(CN4CCC(C(C)(C)F)CC4)c(C)sc23)cc1NS(=O)(=O)C1CC1 [Compound 80] | >256 | 39 nM
29 | CNC1CCN(Cc2c(C)sc3c(-c4cnc(OC)c(NS(C)(=O)=O)c4)nc(N4CCOCC4)nc23)CC1 [Compound 92] | 42 | 71 nM
30 | COc1ncc(-c2nc(N3CCOCC3)nc3c(CN4CCC(N(C)C)CC4)c(C)sc23)cc1NS(C)(=O)=O [Compound 93] | 82 | 10 nM
31 | COc1ncc(-c2nc(N3CCOCC3)nc3c(CN(C)C)c(C)sc23)cc1NS(C)(=O)=O [Compound 94] | 31 | 32 nM
32 | COc1ncc(-c2nc(N3CCOCC3)nc3c(CN4CCNCC4)c(C)sc23)cc1NS(C)(=O)=O [Compound 96] | 64 | 31 nM
33 | COc1ncc(-c2nc(N3CCOCC3)nc3cc(C)sc23)cc1NS(C)(=O)=O [Compound 97] | 10 | 190 nM
34 | COc1ncc(-c2nc(N3CCOCC3)nc3c(CN4CCOCC4)c(C)sc23)cc1NS(C)(=O)=O [Compound 98] | 30 | 12 nM
35 | COc1ncc(-c2nc(N3CCOCC3)nc3c(CN4CCC(F)CC4)c(C)sc23)cc1NS(C)(=O)=O [Compound 105] | 77 | 31 nM
36 | COc1ncc(-c2nc(N3CCOCC3)nc3c(CN4CCC(=O)CC4)c(C)sc23)cc1NS(C)(=O)=O [Compound 107] | 45 | 11 nM
37 | COC(=O)C1CCN(Cc2c(C)sc3c(-c4cnc(OC)c(NS(C)(=O)=O)c4)nc(N4CCOCC4)nc23)CC1 [Compound 111] | 301 | 6.5 nM
38 | COc1ncc(-c2nc(N3CCOCC3)nc3c(CN4CCS(=O)(=O)CC4)c(C)sc23)cc1NS(C)(=O)=O [Compound 113] | 27 | 6.6 nM
39 | COC(=O)N1CCN(Cc2c(C)sc3c(-c4cnc(OC)c(NS(C)(=O)=O)c4)nc(N4CCOCC4)nc23)CC1 [Compound 114] | 44 | 5 nM
40 | COc1ncc(-c2nc(N3CCOCC3)nc3c(CN4CCC5(CC4)COC5)c(C)sc23)cc1NS(C)(=O)=O [Compound 115] | 67 | 13 nM
41 | COc1ncc(-c2nc(N3CCOCC3)nc3c(CN4CCn5cnnc5C4)c(C)sc23)cc1NS(C)(=O)=O [Compound 116] | 57 | 4.3 nM
42 | COc1ncc(-c2nc(N3CCOCC3)nc3c(CN4CCC(CO)CC4)c(C)sc23)cc1NS(C)(=O)=O [Compound 117] | 213 | 7.2 nM
43 | COc1ncc(-c2nc(N3CCOCC3)nc3c(CN4CCC(C(C)(C)O)CC4)c(C)sc23)cc1NS(=O)(=O)C(F)(F)F [Compound 118] | 92 | 2.6 nM
44 | COc1ncc(-c2nc(N3CCOCC3)nc3c(CN4CCN(C(C)(C)CO)CC4)c(C)sc23)cc1NS(C)(=O)=O [Compound 119] | 84 | 5 nM
45 | Cc1sc2c(-c3cnc(Cl)c(NS(C)(=O)=O)c3)nc(N3CCOCC3)nc2c1CN1CCC(C(C)(C)O)CC1 [Compound 120] | 24 | 5 nM
46 | CCN(CC)C1CN(Cc2c(C)sc3c(-c4cnc(OC)c(NS(C)(=O)=O)c4)nc(N4CCOCC4)nc23)C1 [Compound 122] | 172 | 9 nM
